From PMC5620571, “Pharmacokinetic Analysis of an Oral Multicomponent Joint Dietary Supplement (Phycox®) in Dogs” (Pharmaceutics, 2017)
Entries after “also recorded” stand apart in the source; their conditions may differ. Counter-ions that a name gives are not always drawn. Like-named read-outs stand apart in the source and are kept apart here.

Experiments:
[1] = Single-dose oral pharmacokinetic study of one Phycox soft chew in dogs (serum, LC-MS/MS, non-compartmental analysis); format: in vivo, dog (female Beagle); settings: for serum concentration of polyphenol (aglycone or glucuronidated metabolite): single PO Phycox soft chew (36.1 μg ±hesperetin, 0.554 μg trans-resveratrol, 2.88 μg ±naringenin), serum 0-24 h; for half-life: po, 450 mg
Source text: The animal research protocol used in this study was reviewed and approved by the Institutional Animal Care and Use Committee at Washington State University (protocol #04224-011, approved 21 December 2014). Four commercially available purpose-bred intact female research Beagles from an Association for Assessment and Accreditation of Laboratory Animal Care (AALAC) certified source were used for the study. All dogs were 2 years of age at the onset of the study with a weight of 9.25 ± 0.81 kg (mean ± SD; range 8.4–10.2 kg). Animals were housed in AALAC approved facilities for animal research for 80 days acclimating to their environment prior to the initiation of the study. All dogs were fed a standard canine formulation (Proactive Health™ Adult Minichunks, IAMS, Mason, OH, USA) ration twice daily and housed in a temperature and humidity controlled room; 21 °C and 30%, respectively, while under 12 h light cycle conditions. The dogs underwent daily examinations and weekly body weight assessments. All animals were also given daily enrichment activities before, during, and after the study. At study termination all animals were transferred to an unrelated study. Dogs were fasted 12 h prior to the study but provided free access to water. Each subject was administered a single Phycox® soft chew and a series of blood samples (3 mL) were collected at 0, 1, 2, 4, 6, 8, 12 and 24 h post-dose via saphenous or cephalic vein depending on the temperament of the animals. Animals were fed after 2 h post-dose. Following centrifugation of the blood samples, serum was removed and stored at −80 °C until analyzed. One hundred microliters of serum from each PK sample was placed into a microcentrifuge tube. To all samples, except 0 h, 40 μL of 0.1 μg/mL internal standard stock solution (caffeine) was added along with 1.0 mL of cold acetonitrile (−20 °C) to precipitate proteins. The samples were vortexed and centrifuged at 20,160× g for 5 min. […] The residues were reconstituted with 50 μL of starting mobile phase (0.05% aqueous formic acid), vortexed and centrifuged at 20,160× g for 5 min. The supernatants were transferred to 30 kDa centrifugal filter tubes and centrifuged for 30 min at 9000× g. The filtrate was transferred to HPLC vials and 5 μL were injected into the LC-MS/MS system. The PK serum samples were separated into two sets of microcentrifuge tubes (total and aglycone) with 100 μL of serum in each. To the total samples, 20 μL β-glucuronidase (500 U/mL in 6.8 pH phosphate buffer) was added and incubated for 2 h at 37 °C [28]. To all samples except 0 h, 20 μL of 10 μg/mL internal standard stock solution (±liquiritigenin) was added along with 1.0 mL of cold acetonitrile (−20 °C) to precipitate proteins. […] The residues were reconstituted with 50 μL of mobile phase (50% aqueous methanol with 0.1% formic acid), vortexed and centrifuged at 20,160× g for 5 min. The supernatants were transferred to 30 kDa centrifugal filter tubes and centrifuged for 30 min at 9000× g. The filtrate was transferred to HPLC vials and 5 μL were injected into the LC-MS/MS system. PK samples were analyzed using Phoenix WinNonlin software (ver. 6.3; Certara, St. Louis, MO, USA) to derive the pharmacokinetic parameters for each individual dog and expressed as mean ± SEM. A non-compartmental analysis was used to calculate the PK parameters including area under the curve (AUC0–∞), the peak serum concentration (Cmax), time to reach peak serum concentration (Tmax), the apparent volume of distribution (Vd/F), the elimination half-life (t1/2), and the apparent clearance (CL/F). The elimination rate constant (KE), was estimated by log-linear regression of the serum concentrations. The AUC0–∞ was calculated using the long-linear trapezoidal rule for data from time of dosing to the last measured concentration plus the quotient of the last measured concentration divided by KE/2.303. The concentration time points of the animals were subjected to non-compartmental modeling.

[2] = Oral pharmacokinetics of glucosamine HCl in Beagle dogs (Adebowale et al.); format: in vivo; settings: longer than in this study (Phycox soft chew, 450 mg)
Description: Two previous studies have evaluated the oral pharmacokinetics of glucosamine HCl in Beagle dogs. Adebowale et al. administered 1500–2000 mg of glucosamine HCl to eight dogs and used non-compartmental modeling to derive PK parameters. […] The serum-concentration time curve reported in Adebowale et al. was similar in shape to the curve reported in this study but the half-lives were reported to be between 1.52–2.4 h, which is […] than the half-live reported in this study. […] The method employed by the study utilized a validated HPLC method with a limit of quantification of 1.25 μg/mL and involved pre-column derivatization. The amount of glucosamine administered in the present study was 3.3 to 4.4 less than those administered in the study by Adebowale et al. but the method employed in this study was 250 times more sensitive allowing for detection of much smaller concentrations of glucosamine. Various LC-MS-MS assays are validated in the literature across various fluids and species. […] The second report of glucosamine HCl PK in dogs administered 1000 mg of glucosamine HCl to four male dogs using two commercially available chewable tablet formulations. […] The method employed by the study used a modified HPLC method with a limit of quantification of 0.05 μg/mL (10 fold higher limit of quantitation than the method presented in this study) and involved pre-column derivatization. […]

[3] = parameters: method as in PMID 12214321; settings: cited from earlier work
[4] = parameters: method as in PMID 26205697; settings: cited from earlier work
[5] = parameters: method as in PMID 19647388; settings: Beagle dogs; cited from earlier work
[6] = female, Beagle, dog, glucosamine HCl 450 mg in one Phycox soft chew PO, fasted dogs, serum, n = 4, mean ± SEM
[7] = 1000 mg glucosamine HCl, four male dogs, two commercially available chewable tablet formulations

| half-life ([1]; female, Beagle, dog, serum, glucosamine HCl 450 mg in one Phycox soft chew PO, dogs, serum, read-out: apparent t1/2) | half-life ([1]; female, Beagle, dog, serum, glucosamine HCl 450 mg in one Phycox soft chew PO, fasted dogs, serum, n = 4, mean ± SEM, read-out: t1/2 (converted)) | AUC(0-inf) [1, 6] | CL/F [1, 6] | Cmax [1, 6] | Tmax [1, 6] | Vd/F [1, 6] | time post-dose up to which glucosamine was detected in serum ([1]; single PO Phycox soft chew, dogs, samples collected for 24 h, LOQ 5 ng/mL) | half-life of Adebowale et al. relative to the half-life of this study [2] | Structure (SMILES) | serum concentration of polyphenol (aglycone or glucuronidated metabolite) ([1]; dogs, LOQ 5 ng/mL) | serum concentration of polyphenol (aglycone or glucuronidated metabolite) ([1]; dogs, LOQ 5 ng/mL, listed as ±Hesperetin) | half-lives ([3]; 1500–2000 mg glucosamine HCl oral, eight Beagle dogs) | detection of glucosamine ([3]; after 4 h post-dose, HPLC, LOQ 1.25 μg/mL) | Cmax [4, 7] | Tmax [4, 7] | detection of glucosamine ([4]; at 12 h post-dose, HPLC, LOQ 0.05 μg/mL) | absorption of glucosamine co-administered with chitosan compared to glucosamine alone [5] |
| --- | --- | --- | --- | --- | --- | --- | --- | --- | --- | --- | --- | --- | --- | --- | --- | --- | --- |
|  |  |  |  |  |  |  |  |  | COc1ccc(C2CC(=O)c3c(O)cc(O)cc3O2)cc1O (racemic) [±hesperetin] | no compounds were detected at quantifiable concentrations | not detected at quantifiable concentrations |  |  |  |  |  |  |
| ~35 min | 35 ± 2.04 min | 20400 ± 2340 ng·h/mL | 42.7 mL/min/kg | 9690 ± 1140 ng/mL | 120 min | 2.1 ± 0.254 L/kg | up to 8 h | 3–5 times | N[C@H]1C(O)O[C@H](CO)[C@@H](O)[C@@H]1O (stereo partly drawn) [glucosamine, glucosamine hydrochloride] |  |  | 1.52 to 2.4 h | not able to detect | 1800 to 2600 ng/mL | 252 to 300 min | not able to detect | increased |
|  |  |  |  |  |  |  |  |  | Oc1ccc(/C=C/c2cc(O)cc(O)c2)cc1 [trans-resveratrol] | not detected at quantifiable concentrations; also recorded: no compounds were detected at quantifiable concentrations |  |  |  |  |  |  |  |
